Assay results reported in patent US7776847B2, “Benzisothiazoles useful for treating or preventing HCV infection” (priority 2005, dated 2010).

Each compound was assayed on HCV replicon (assay: HCV replicon luciferase reporter assay). Conditions: Hepatitis C virus, Table 5; read-out: IC50.
Type: cell-based
How it was run: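 Replicon-bearing dividing cells seeded at 5,000–7,500 cells/well, grown 24 h at 37° C/5% CO2, then exposed to test compound at various concentrations for a further 24–48 h. Replication/translation read by luciferase reporter; IC50 taken as compound amount giving 50% reduction in luciferase activity.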

Row | Structure (SMILES) | IC50 [µM]
1 | Cn1c(C(=O)NCCNc2nsc3ccccc23)cc2ccccc21 [Compound 412, N-(2-(benzo[d]isothiazol-3-ylamino)ethyl)-1-methyl-1H-indole-2-carboxamide] | < 5
2 | O=C(NCCNc1nsc2ccccc12)c1cc(-c2ccccc2)n[nH]1 [Compound 413, N-(2-(benzo[d]isothiazol-3-ylamino)ethyl)-3-phenyl-1H-pyrazole-5-carboxamide] | > 5
3 | O=Cc1cccc(C(=O)NCCNc2nsc3ccccc23)c1 [Compound 414, N-(2-(benzo[d]isothiazol-3-ylamino)ethyl)-3-formylbenzamide] | > 5
4 | O=Cc1ccc(C(=O)NCCNc2nsc3ccccc23)cc1 [Compound 415, N-(2-(benzo[d]isothiazol-3-ylamino)ethyl)-4-formylbenzamide] | > 5
5 | O=C(NCCNc1nsc2ccccc12)c1cccc(CO)c1 [Compound 416, N-(2-(benzo[d]isothiazol-3-ylamino)ethyl)-3-(hydroxymethyl)benzamide] | > 5
6 | c1ccc2c(NCCNc3nsc4ccccc34)nsc2c1 [Compound 417, N^1,N^2-di(benzo[d]isothiazol-3-yl)ethane-1,2-diamine] | > 5
7 | CCCNC(=O)c1ccc(C(=O)NCCNc2nsc3ccccc23)cc1 [Compound 418, N^1-(2-(benzo[d]isothiazol-3-ylamino)ethyl)-N^4-propylterephthalamide] | > 5
8 | O=C(NCCCNc1nsc2ccccc12)c1cccc(Br)n1 [Compound 419, N-(3-(benzo[d]isothiazol-3-ylamino)propyl)-6-bromopicolinamide] | < 5
9 | O=C(NCCCNc1nsc2ccccc12)c1cccc(F)n1 [Compound 420, N-(3-(benzo[d]isothiazol-3-ylamino)propyl)-6-fluoropicolinamide] | > 5
10 | CCCCc1ccc(C(=O)NCCNc2nsc3ccc(Cl)cc23)cc1 [Compound 421, 4-butyl-N-(2-(5-chlorobenzo[d]isothiazol-3-ylamino)ethyl)benzamide] | < 5
11 | CCCCNC(=O)c1ccc(C(=O)NCCNc2nsc3ccccc23)cc1 [Compound 422, N^1-(2-(benzo[d]isothiazol-3-ylamino)ethyl)-N^4-butylterephthalamide] | < 5
12 | CCCCCOc1ccc(C(=O)NCCNc2nsc3ccc(Cl)cc23)cc1 [Compound 423, N-(2-(5-chlorobenzo[d]isothiazol-3-ylamino)ethyl)-4-(pentyloxy)benzamide] | < 5
13 | CC(C)(C)OC(=O)N1CCCC(C(=O)NCCNc2nsc3ccc(Cl)cc23)C1 (stereo not drawn) [Compound 424, tert-butyl 3-(2-(5-chlorobenzo[d]isothiazol-3-ylamino)ethylcarbamoyl)piperidine-1-carboxylate] | < 5
14 | CC(C)(C)OC(=O)N[C@H](C(=O)NCCNc1nsc2ccc(Cl)cc12)c1ccccc1 [Compound 425, (S)-tert-butyl 2-(2-(5-chlorobenzo[d]isothiazol-3-ylamino)ethylamino)-2-oxo-1-phenylethylcarbamate] | < 5
15 | CC(C)NC(=O)c1ccc(C(=O)NCCNc2nsc3ccccc23)cc1 [Compound 426, N^1-(2-(benzo[d]isothiazol-3-ylamino)ethyl)-N^4-isopropylterephthalamide] | < 5
16 | O=C(NCCNc1nsc2ccccc12)c1ccc(C(=O)NC2CC2)cc1 [Compound 427, N^1-(2-(benzo[d]isothiazol-3-ylamino)ethyl)-N^4-cyclopropylterephthalamide] | < 5
17 | CCCNC(=O)c1cccc(C(=O)NCCNc2nsc3ccccc23)c1 [Compound 428, N^1-(2-(benzo[d]isothiazol-3-ylamino)ethyl)-N^3-propylisophthalamide] | < 5

Row | Structure (SMILES) | IC50 [µM]
18 | CCCCNC(=O)c1cccc(C(=O)NCCNc2nsc3ccccc23)c1 [Compound 429, N^1-(2-(benzo[d]isothiazol-3-ylamino)ethyl)-N^3-butylisophthalamide] | < 5
19 | CC(C)NC(=O)c1cccc(C(=O)NCCNc2nsc3ccccc23)c1 [Compound 430, N^1-(2-(benzo[d]isothiazol-3-ylamino)ethyl)-N^3-isopropylisophthalamide] | < 5
20 | O=C(NCCNc1nsc2ccccc12)c1cccc(C(=O)NC2CC2)c1 [Compound 431, N^1-(2-(benzo[d]isothiazol-3-ylamino)ethyl)-N^3-cyclopropylisophthalamide] | < 5
21 | COc1ccc2[nH]c(C(=O)NCCNc3nsc4ccc(Cl)cc34)cc2c1 [Compound 432, N-(2-(5-chlorobenzo[d]isothiazol-3-ylamino)ethyl)-5-methoxy-1H-indole-2-carboxamide] | < 5
22 | O=C(NCCCNc1nsc2ccccc12)c1cc2ccc([N+](=O)[O-])cc2s1 [Compound 433, N-(3-(benzo[d]isothiazol-3-ylamino)propyl)-6-nitrobenzo[b]thiophene-2-carboxamide] | < 5
23 | c1ccc2c(NCCCNc3nsc4ccccc34)nsc2c1 [Compound 434, N^1,N^3-di(benzo[d]isothiazol-3-yl)propane-1,3-diamine] | < 5
24 | COc1cccc2cc(C(=O)NCCCNc3nsc4ccccc34)oc12 [Compound 435, N-(3-(benzo[d]isothiazol-3-ylamino)propyl)-7-methoxybenzofuran-2-carboxamide] | < 5
25 | O=C(NCCCNc1nsc2ccccc12)c1cc2cc(Cl)ccc2o1 [Compound 436, N-(3-(benzo[d]isothiazol-3-ylamino)propyl)-5-chlorobenzofuran-2-carboxamide] | < 5
26 | COc1ccc2oc(C(=O)NCCCNc3nsc4ccccc34)cc2c1 [Compound 437, N-(3-(benzo[d]isothiazol-3-ylamino)propyl)-5-methoxybenzofuran-2-carboxamide] | < 5
27 | COc1ccc(-c2cccc(C(=O)NCCCNc3nsc4ccccc34)n2)c(OC)c1 [Compound 438, N-(3-(benzo[d]isothiazol-3-ylamino)propyl)-6-(2,4-dimethoxyphenyl)picolinamide] | < 5
28 | O=C(NCCCNc1nsc2ccccc12)c1cc2ccc([N+](=O)[O-])cc2o1 [Compound 439, N-(3-(benzo[d]isothiazol-3-ylamino)propyl)-6-nitrobenzofuran-2-carboxamide] | < 5
29 | CS(=O)(=O)c1ccc(-c2cccc(C(=O)NCCCNc3nsc4ccccc34)n2)cc1 [Compound 440, N-(3-(benzo[d]isothiazol-3-ylamino)propyl)-6-(4-(methylsulfonyl)phenyl)picolinamide] | < 5
30 | CC1=NN(c2ccc(C(=O)NCCNc3nsc4ccccc34)cc2)C(=O)C1 [Compound 441, N-(2-(benzo[d]isothiazol-3-ylamino)ethyl)-4-(3-methyl-5-oxo-4,5-dihydropyrazol-1-yl)benzamide] | > 5
31 | O=C(NCCCNc1nsc2ccccc12)c1ccc(Br)nc1 [Compound 443, N-(3-(benzo[d]isothiazol-3-ylamino)propyl)-6-bromonicotinamide] | < 5
32 | CN(C)CCCNc1cccc(C(=O)NCCCNc2nsc3ccccc23)n1 [Compound 447, N-(3-(benzo[d]isothiazol-3-ylamino)propyl)-6-(3-(dimethylamino)propylamino)picolinamide] | < 5
33 | CCCCNc1cccc(C(=O)NCCCNc2nsc3ccccc23)n1 [Compound 448, N-(3-(benzo[d]isothiazol-3-ylamino)propyl)-6-(butylamino)picolinamide] | > 5
